Experimental data as given in ChEMBL document CHEMBL3885861, “Open TG-GATES”.

Species: Rattus norvegicus
Experiment: Open TG-GATES - Regimen: Single
Format: toxicity, organism-based, Sprague-Dawley
Design: regimen Single, gender Male, age 6 weeks
Settings: in vivo, po, 10 mg/kg, route gavage, dose level Low; for KIDNEY_L / KIDNEY_R / KIDNEY_TOTAL: tissue Kidney; for LIVER: tissue Liver; for ALP / ALT / AST / BUN / CRE / DBIL / GLC / IP / K / PL / RALB / TBIL / TC / TG / TP / gamma-GTP: tissue Plasma

With CC(C)OC(=O)C(C)(C)Oc1ccc(C(=O)c2ccc(Cl)cc2)cc1 [FENOFIBRATE] the Fbg (3 h, tissue Blood) was 280.8 mg/dL, the Ht (3 h, tissue Blood) was 40.3% and the MCHC (3 h, tissue Blood) was 32.3%. The Mono (3 h, tissue Blood) was 3.6%, the RBC (3 h, tissue Blood) was 603 x10_4/ul and the Ret (3 h, tissue Blood) was 10.2%. It also gave a KIDNEY_L (3 h) of 0.8 g, a KIDNEY_R (3 h) of 0.8 g and a KIDNEY_TOTAL (3 h) of 1.6 g. For the same compound, the LIVER (3 h) was 7.8 g, the ALP (3 h) was 1472.8 IU/L and the ALT (3 h) was 49.4 IU/L. The AST (3 h) was 83.6 IU/L, the BUN (3 h) was 9.8 mg/dL and the CRE (3 h) was 0.2 mg/dL. For the same compound, the DBIL (3 h) was 0.01 mg/dL, the GLC (3 h) was 178.4 mg/dL and the IP (3 h) was 10 mg/dL. For the same compound, the K (3 h) was 4.2 meq/L, the PL (3 h) was 140.8 mg/dL and the RALB (3 h) was 2.4 g/dL. It also gave a TBIL (3 h) of 0.058 mg/dL, a TC (3 h) of 80.4 mg/dL and a TG (3 h) of 43 mg/dL. It also gave a TP (3 h) of 5.2 g/dL, a gamma-GTP (3 h) of 1.4 IU/L and a Bas (6 h, tissue Blood) of 0%. The Eos (6 h, tissue Blood) was 0.8%, the Fbg (6 h, tissue Blood) was 283 mg/dL and the Ht (6 h, tissue Blood) was 39.7%. The Lym (6 h, tissue Blood) was 69.4%, the MCHC (6 h, tissue Blood) was 32% and the Mono (6 h, tissue Blood) was 2.6%. It also gave an RBC (6 h, tissue Blood) of 572.6 x10_4/ul, a Ret (6 h, tissue Blood) of 11.1% and a KIDNEY_L (6 h) of 0.8 g. For the same compound, the KIDNEY_R (6 h) was 0.8 g, the KIDNEY_TOTAL (6 h) was 1.6 g and the LIVER (6 h) was 7.8 g. The ALP (6 h) was 1504.8 IU/L, the ALT (6 h) was 43.4 IU/L and the AST (6 h) was 77.2 IU/L. It also gave a BUN (6 h) of 8.8 mg/dL, a CRE (6 h) of 0.2 mg/dL and a DBIL (6 h) of 0.01 mg/dL. For the same compound, the GLC (6 h) was 180.2 mg/dL, the IP (6 h) was 10.2 mg/dL and the K (6 h) was 4.2 meq/L. For the same compound, the PL (6 h) was 128 mg/dL, the RALB (6 h) was 2.5 g/dL and the TBIL (6 h) was 0.056 mg/dL. For the same compound, the TC (6 h) was 71.6 mg/dL, the TG (6 h) was 36.8 mg/dL and the TP (6 h) was 5.4 g/dL. For the same compound, the gamma-GTP (6 h) was 1.4 IU/L, the Bas (9 h, tissue Blood) was 0% and the Eos (9 h, tissue Blood) was 1%. For the same compound, the Fbg (9 h, tissue Blood) was 283 mg/dL, the Ht (9 h, tissue Blood) was 39.6% and the MCHC (9 h, tissue Blood) was 32.4%. It also gave a Mono (9 h, tissue Blood) of 1.4%, an RBC (9 h, tissue Blood) of 608.4 x10_4/ul and a Ret (9 h, tissue Blood) of 9.5%. It also gave a KIDNEY_L (9 h) of 0.8 g, a KIDNEY_R (9 h) of 0.8 g and a KIDNEY_TOTAL (9 h) of 1.6 g. The LIVER (9 h) was 7 g, the ALP (9 h) was 1360.4 IU/L and the ALT (9 h) was 42.4 IU/L. For the same compound, the AST (9 h) was 77.4 IU/L, the BUN (9 h) was 7.4 mg/dL and the CRE (9 h) was 0.1 mg/dL. For the same compound, the DBIL (9 h) was 0.01 mg/dL, the GLC (9 h) was 175.2 mg/dL and the IP (9 h) was 9.8 mg/dL. The K (9 h) was 3.9 meq/L, the PL (9 h) was 124 mg/dL and the RALB (9 h) was 2.4 g/dL. It also gave a TBIL (9 h) of 0.054 mg/dL, a TC (9 h) of 70.8 mg/dL and a TG (9 h) of 31.2 mg/dL. It also gave a TP (9 h) of 5.2 g/dL, a gamma-GTP (9 h) of 0.8 IU/L and a Bas (24 h, tissue Blood) of 0%. For the same compound, the Eos (24 h, tissue Blood) was 1%, the Fbg (24 h, tissue Blood) was 270 mg/dL and the Ht (24 h, tissue Blood) was 38.6%. It also gave an MCHC (24 h, tissue Blood) of 32.4%, a Mono (24 h, tissue Blood) of 3.8% and an RBC (24 h, tissue Blood) of 590.4 x10_4/ul. The Ret (24 h, tissue Blood) was 8.6%, the KIDNEY_L (24 h) was 0.8 g and the KIDNEY_R (24 h) was 0.8 g. The KIDNEY_TOTAL (24 h) was 1.6 g, the LIVER (24 h) was 9.2 g and the ALP (24 h) was 1838.8 IU/L. The ALT (24 h) was 49.2 IU/L, the AST (24 h) was 76.8 IU/L and the BUN (24 h) was 14.2 mg/dL. It also gave a CRE (24 h) of 0.2 mg/dL, a DBIL (24 h) of 0.012 mg/dL and a GLC (24 h) of 179.6 mg/dL. For the same compound, the IP (24 h) was 8.6 mg/dL, the K (24 h) was 4.3 meq/L and the PL (24 h) was 133.2 mg/dL. It also gave an RALB (24 h) of 2.6 g/dL, a TBIL (24 h) of 0.04 mg/dL and a TC (24 h) of 68.8 mg/dL. The TG (24 h) was 54 mg/dL, the TP (24 h) was 5.4 g/dL and the gamma-GTP (24 h) was 1.2 IU/L.
